Values after ≈ are worked out from the molar mass of the structure shown. Where two headings read alike, the source gives them in different places.
How the values were obtained:
[1] = test system: Lactococcus garvie Isolate 2; assay: MIC assay; format: cell-based, Lactococcus garvieae; conditions: for MIC50 / MIC90: Lactococcus
Method: (§1) The exact weighed amount was noted and the volume of solvent to reach a 80 mM dilution calculated. Half of the volume was added first, by adding Tween 80 and let stand for 5 minutes. In a second step, the other half of the volume DMSO was added and resuspended to help the dilution process. The closed tube was inverted 5-10 times and then vortexed very thoroughly for at least 30 seconds. If after this procedure crystals were still visible, the tube was placed in a shaker at 37° C. at 150 rpm for at least 30 minutes (it is indicated if the dissolution period was longer than 2 h). […] In case of Bis(4-Chlorophenyl) thiosulfonate, a lower concentrated stock solution of 2 mM needed to be prepared. For that, the required amount of compound was weighed in and 2% v/v Tween80 and 2% v/v DMSO of the end volume of the stock solution was added to the substance. This mix was heated in a water bath set to 40° C. and occasionally shaken. When the whole amount of the substance reached dissolution, the volume was filled up with growth medium until the end volume. This 2 mM stock solution of Bis(4-Chlorophenyl) thiosulfonate was used in the MIC plate and diluted two-fold, resulting in a testing range of Bis(4-Chlorophenyl) thiosulfonate from 1 mM to 0.002 mM.
(§2) The microorganisms as indicated in Table 4 were used to inoculate a tryptic soy agar (TSA) plate and incubated overnight at 37° C. After incubation 3-5 well-isolated colonies with the same morphology were selected from the TSA plate and resuspended in 2 mL 0.9% saline solution with 3-6 glass beads and vortexed. The optical density at 600 nm (OD600) of the bacterial suspension was measured with a spectrophotometer (Evolution™ 201/220 UV-Visible Spectrophotometer, Thermo Fisher Scientific) and diluted to an OD600 of 0.0008, which resembles 10^6 CFU/mL.
(§3) The MIC assay was performed in a flat-bottom 96-microtiter plate. 50 μL of MHB-II was added into columns 2-11, and 100 μL to column 12 for sterility control. 100 μL of the 8 mM test compound solution (method 1) was added to column 1. A two-fold dilution series of the solution in MHB-II was achieved by resuspending 50 μL of the 8 mM solution from column 1 to column 2. This step was repeated until column 10. The respective concentration of Tween 80 and DMSO in column 1 was 2.5%, which is two-fold diluted throughout the plate. 50 μL of the bacterial suspension was added to column 1-11. The microtiter plates were sealed with adhesive polyethylene film for sealing microplates (Diversified Biotech) and incubated for 24 h at 37° C. After incubation the OD was measured at 600 nm with the Varioskan (Thermo Fisher Scientific). The minimal concentration which causes reduction of final OD600 of the bacterial culture by 50% (MIC50) and by 90% (MIC90) was calculated after normalization of the obtained OD values to the growth control in column 11. This assay was repeated three times in three independent experiments.
(§4) Hereafter, the stock solutions of the compounds were used in three repetitions in a minimal inhibitory concentration (MIC) assay at a 2-fold dilution range with various bacteria from the gram-positive and gram-negative group and a yeast, Candida albicans. The concentrations that show only less than 10% growth after 24 h were considered the MIC90-values, whereas the concentrations that show 50% growth after 24 h when compared to the bacterial growth control were considered the MIC50-values. Escherichia coli and Staphylococcus aureus were used as representatives for a gram-negative bacteria and gram-positive bacteria, respectively. Furthermore, the yeast C. albicans was also tested.
(§5) In an Eppendorf tube between 10-20 mg of the test compound was weighed. Hereafter, the required amount of Tween 80 was added, followed by the amount DMSO. After vigorous shaking, the dissolved and transparent dilutions were diluted 10 times with Mueller Hinton Broth (MHB) for the MIC assay. […]

[2] = test system: Acinetobacter baumanni RUH875; assay: MIC assay; format: cell-based; conditions: for MIC90 / MIC50: Acinetobacter
Method: as §1, §2, §3, §4, §5

[3] = test system: Streptococcus agalactiae ATCC 13813; assay: MIC assay; format: cell-based; conditions: for MIC50 / MIC90: Streptococcus agalactiae, ATCC13813
Method: as §1, §2, §3, §4, §5

[4] = test system: Escherichia coli ATCC 25922; assay: MIC assay; format: cell-based; conditions: for MIC50 / MIC90: Escherichia coli, ATCC25922
Method: as §1, §2, §3, §4, §5

[5] = test system: Staphylococcus aureus (MRSA) LUH14616; assay: MIC assay; format: cell-based; conditions: for MIC50 / MIC90: Staphylococcus aureus, MRSA
Method: as §1, §2, §3, §4, §5

[6] = test system: Pseudomonas aeruginosa ATCC 27853 biofilm; assay: MBIC assay (crystal violet); format: cell-based; conditions: 48 h at 37° C., absorbance 540 nm
Method: as §1
Frozen aliquots of Staphylococcus epidermis ATCC 35984 and Pseudomonas aeruginosa ATCC 27853 were used to inoculate a tryptic soy agar (TSA) plate and were incubated overnight at 37° C. After incubation 3-5 well-isolated colonies with the same morphology were selected from the TSA plate and resuspended in 2 ml 0.9% saline solution with 3-6 glass beads and vortexed. The optical density of the bacterial suspension was measured at 600 nm (OD600) with a spectrophotometer (Evolution™ 201/220 UV-Visible Spectrophotometer, Thermo Fisher Scientific) and diluted to an OD600 of 0.2. The MBIC assay was performed in a 96-microtiter plate. […] The solution was resuspended and transferred to a flat-bottom 96-well plate and the absorbance measured at 540 nm with the spectrophotometer. […]

[7] = Example 2a, n = 3, Isolate 2, read-out: MIC90 Lactococcus garvie (+)
[8] = Example 2b, FIG. 1, no MIC90 detected in the tested range, read-out: Average MIC90 L. garvieae (Lg)
[9] = RUH875, Example 2b, FIG. 1, no MIC90 detected in the tested range, read-out: Average MIC90 A. baumanni (Ab)
[10] = Example 2a, n = 3, RUH875, read-out: MIC90 Acinetobacter baumanni
[11] = Example 2a, n = 3, ATCC 13813, read-out: MIC90 Streptococcus agalactiae (+)
[12] = Example 2a, n = 3, ATCC 25922, read-out: MIC90 Escherichia coli
[13] = Example 2b, FIG. 1, no MIC90 detected in the tested range, read-out: Average MIC90 E. coli (Ec)
[14] = Example 2a, n = 3, LUH14616, read-out: MIC90 Staphylococcus aureus (+) (MRSA)

| Structure (SMILES) | MIC50 Lactococcus garvie (+) ([1]; Example 2a, n = 3, Isolate 2) | MIC90 Lactococcus garvie (+) ([1]; Example 2a, n = 3, Isolate 2) | MIC50 Acinetobacter baumanni ([2]; Example 2a, n = 3, RUH875) | MIC90 Acinetobacter baumanni ([2]; Example 2a, n = 3, RUH875) | MIC50 Streptococcus agalactiae (+) ([3]; Example 2a, n = 3, ATCC 13813) | MIC90 Streptococcus agalactiae (+) ([3]; Example 2a, n = 3, ATCC 13813) | MIC50 Escherichia coli ([4]; Example 2a, n = 3, ATCC 25922) | MIC90 Escherichia coli ([4]; Example 2a, n = 3, ATCC 25922) | MIC50 Staphylococcus aureus (+) (MRSA) ([5]; Example 2a, n = 3, LUH14616) | MIC90 Staphylococcus aureus (+) (MRSA) ([5]; Example 2a, n = 3, LUH14616) | P. aeruginosa MBIC90 [6] | other results |
| --- | --- | --- | --- | --- | --- | --- | --- | --- | --- | --- | --- | --- |
| O=S(=O)(Sc1ccc(F)cc1)c1ccc(F)cc1 [Bis (4-fluorophenyl) thiosulfonate, Bis(4-fluorophenyl) thiosulfonate] | 0.22 mM | 0.83 mM | 2.83 mM | >4 mM | 1.33 mM | 1.67 mM | 1.50 mM | >4 mM | <0.008 mM | 1.27 mM |  |  |
| CCCSS(=O)(=O)CCC [Di-n-propyl thiosulfonate, reference compound] |  |  |  |  |  |  |  |  |  |  | 0.5 mM |  |
| CCCSSCCC [Di-n-propyl disulfide, reference compound] |  |  |  |  |  |  |  |  |  |  | >4 mM |  |
| Fc1ccc(SSc2ccc(F)cc2)cc1 [Bis (4-fluorophenyl) disulfide, Bis(4-fluorophenyl) disulfide] |  |  |  |  |  |  |  |  |  |  |  | MIC50 ([1]; Example 2a, n = 3, Isolate 2): 250 µM (≈ 63.6 µg/mL); MIC90 [1, 7]: > 4 mM; MIC90 [1, 8]: > 4 mM; MIC90 [2, 9]: > 4 mM; MIC50 ([2]; Example 2a, n = 3, RUH875): 3000 µM (≈ 763 µg/mL); MIC90 [2, 10]: > 4 mM; MIC50 ([3]; Example 2a, n = 3, ATCC 13813): 210 µM (≈ 53.4 µg/mL); MIC90 [3, 11]: 500 µM (≈ 127 µg/mL); MIC50 ([4]; Example 2a, n = 3, ATCC 25922): 1250 µM (≈ 318 µg/mL); MIC90 [4, 12]: > 4 mM; MIC90 [4, 13]: > 4 mM; MIC50 ([5]; Example 2a, n = 3, LUH14616): < 8 µM; MIC90 [5, 14]: 2330 µM (≈ 593 µg/mL) |
| O=S(=O)(Sc1ccc(Cl)cc1)c1ccc(Cl)cc1 [Bis (4-chlorophenyl) thiosulfonate, Bis(4-chlorophenyl) thiosulfonate] | 0.09 mM | 0.50 mM | >1 mM | >1 mM | 0.16 mM | 0.50 mM | >1 mM | >1 mM | 0.06 mM | 0.75 mM |  |  |
| Clc1ccc(SSc2ccc(Cl)cc2)cc1 [Bis (4-chlorophenyl) disulfide, Bis(4-chlorophenyl) disulfide] |  |  |  |  |  |  |  |  |  |  | >4 mM | MIC50 ([1]; Example 2a, n = 3, Isolate 2): 1350 µM (≈ 388 µg/mL); MIC90 [1, 7]: > 4 mM; MIC90 [1, 8]: > 1 mM; MIC90 [2, 9]: > 1 mM; MIC50 ([2]; Example 2a, n = 3, RUH875): > 4000 µM; MIC90 [2, 10]: > 4 mM; MIC50 ([3]; Example 2a, n = 3, ATCC 13813): 10 µM (≈ 2.87 µg/mL); MIC90 [3, 11]: 70 µM (≈ 20.1 µg/mL); MIC90 ([3]; Example 2b, FIG. 1, no MIC90 detected in the tested range, read-out: Average MIC90 S. agalactiae (Sag)): > 1000 µM; MIC50 ([4]; Example 2a, n = 3, ATCC 25922): > 4000 µM; MIC90 [4, 12]: > 4 mM; MIC90 [4, 13]: > 1 mM; MIC50 ([5]; Example 2a, n = 3, LUH14616): < 8 µM; MIC90 [5, 14]: 190 µM (≈ 54.6 µg/mL); MIC90 ([5]; Example 2b, FIG. 1, no MIC90 detected in the tested range, read-out: Average MIC90 S. aureus (Sau)): > 1000 µM |
| [O-][S+](Sc1ccc(F)cc1)c1ccc(F)cc1 (stereo not shown) [Bis (4-fluorophenyl) thiosulfinate, Bis(4-fluorophenyl) thiosulfinate] | 0.13 mM (≈ 35.1 µg/mL) | 0.83 mM (≈ 224 µg/mL) | 2.00 mM (≈ 541 µg/mL) | >4 mM | 1.04 mM (≈ 281 µg/mL) | 1.67 mM (≈ 451 µg/mL) | 1.00 mM (≈ 270 µg/mL) | >4 mM | 0.28 mM (≈ 75.7 µg/mL) | 1.77 mM (≈ 478 µg/mL) |  |  |

Source: patent US20260083126A1, “ANTIMICROBIAL COMPOSITIONS” (AHV International B.V., priority 2022, published 2026)
